Experimental data reported in ChEMBL document CHEMBL1201862, “PubChem BioAssay data set” (2004).
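Interpolation was linear, between the two tested concentrations surrounding the appropriate level; five concentrations were tested over 48 hours in 96-well plates. The concentration for 50% growth inhibition is given as GI50.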 Calls of active or inactive are those of the source. Rule as the data show it: active = GI50 up to about 1.1 µM and inactive = higher.

What was measured:
Experiment in all cases: growth of human tumour cells (NCI), 48 h
OVCAR-3 = test system: OVCAR-3
NCI-H460 = test system: NCI-H460
HT-29 = test system: HT-29
NCI/ADR-RES = test system: NCI/ADR-RES
SK-MEL-28 = test system: SK-MEL-28
EKVX = test system: EKVX
SK-MEL-2 = test system: SK-MEL-2
MDA-N = test system: MDA-N
KM12 = test system: KM12
HCT-116 = test system: HCT-116
K562 = test system: K562
RXF 393 = test system: RXF 393
786-0 = test system: 786-0
MOLT-4 = test system: MOLT-4
UACC-257 = test system: UACC-257
Hs-578T = test system: Hs-578T
SF-539 = test system: SF-539
NCI-H522 = test system: NCI-H522
HOP-62 = test system: HOP-62
SK-OV-3 = test system: SK-OV-3
MCF7 = test system: MCF7
SF-268 = test system: SF-268
Malme-3M = test system: Malme-3M
CAKI-1 = test system: CAKI-1
SW-620 = test system: SW-620
OVCAR-4 = test system: OVCAR-4
SNB-19 = test system: SNB-19
OVCAR-5 = test system: OVCAR-5
HL-60 = test system: HL-60
OVCAR-8 = test system: OVCAR-8
M14 = test system: M14
SN12C = test system: SN12C
LOX IMVI = test system: LOX IMVI
DU-145 = test system: DU-145
SF-295 = test system: SF-295
COLO 205 = test system: COLO 205
HOP-92 = test system: HOP-92
CCRF-CEM = test system: CCRF-CEM
HCT-15 = test system: HCT-15
SK-MEL-5 = test system: SK-MEL-5
UO-31 = test system: UO-31
U-251 = test system: U-251
MDA-MB-231 = test system: MDA-MB-231
TK-10 = test system: TK-10
T47D = test system: T47D
ACHN = test system: ACHN
A498 = test system: A498
A549 = test system: A549
NCI-H226 = test system: NCI-H226
NCI-H23 = test system: NCI-H23
HCC 2998 = test system: HCC 2998
IGROV-1 = test system: IGROV-1
PC-3 = test system: PC-3
RPMI-8226 = test system: RPMI-8226
MDA-MB-435 = test system: MDA-MB-435
SNB-75 = test system: SNB-75
UACC-62 = test system: UACC-62
SR = test system: SR

CCc1cc2c(c3c1CCCC3=O)CC1(Cc3ccc(C(=O)OC)cc3C1)C2 (stereo not drawn)
GI50 (OVCAR-3): > 100 µM (inactive)
GI50 (NCI-H460): > 100 µM (inactive)
GI50 (HT-29): 68.1 µM (inactive)
GI50 (NCI/ADR-RES): 76 µM (inactive)
GI50 (SK-MEL-28): 64 µM (inactive)
GI50 (EKVX): 96.6 µM (inactive)
GI50 (SK-MEL-2): > 100 µM (inactive)
GI50 (MDA-N): > 100 µM (inactive)
GI50 (KM12): 30.6 µM (inactive)
GI50 (HCT-116): 37.9 µM (inactive)
GI50 (K562): 22 µM (inactive)
GI50 (RXF 393): 32.5 µM (inactive)
GI50 (786-0): 84.5 µM (inactive)
GI50 (MOLT-4): 24.9 µM (inactive)
GI50 (UACC-257): 32.1 µM (inactive)
GI50 (Hs-578T): > 100 µM (inactive)
GI50 (SF-539): > 100 µM (inactive)
GI50 (NCI-H522): 51.1 µM (inactive)
GI50 (HOP-62): > 100 µM (inactive)
GI50 (SK-OV-3): > 100 µM (inactive)
GI50 (MCF7): 24 µM (inactive)
GI50 (SF-268): > 100 µM (inactive)
GI50 (Malme-3M): 49.2 µM (inactive)
GI50 (CAKI-1): 96.6 µM (inactive)
GI50 (SW-620): > 100 µM (inactive)
GI50 (OVCAR-4): 40.9 µM (inactive)
GI50 (SNB-19): > 100 µM (inactive)
GI50 (OVCAR-5): > 100 µM (inactive)
GI50 (HL-60): 22.5 µM (inactive)
GI50 (OVCAR-8): > 100 µM (inactive)
GI50 (M14): 94.8 µM (inactive)
GI50 (SN12C): > 100 µM (inactive)
GI50 (LOX IMVI): 84.5 µM (inactive)
GI50 (DU-145): > 100 µM (inactive)
GI50 (SF-295): 85.7 µM (inactive)
GI50 (COLO 205): 47.9 µM (inactive)
GI50 (HOP-92): 29.1 µM (inactive)
GI50 (CCRF-CEM): 29.3 µM (inactive)
GI50 (HCT-15): > 100 µM
GI50 (SK-MEL-5): 15 µM (inactive)
GI50 (UO-31): 48.3 µM (inactive)
GI50 (U-251): 82.8 µM (inactive)
GI50 (MDA-MB-231): > 100 µM (inactive)
GI50 (TK-10): > 100 µM (inactive)
GI50 (T47D): 65.2 µM (inactive)
GI50 (ACHN): 25.6 µM (inactive)
GI50 (A498): > 100 µM (inactive)
GI50 (A549): 48.4 µM (inactive)
GI50 (NCI-H226): > 100 µM (inactive)
GI50 (NCI-H23): 85.7 µM (inactive)
GI50 (HCC 2998): 93.1 µM (inactive)
GI50 (IGROV-1): > 100 µM (inactive)
GI50 (PC-3): 14.4 µM (inactive)
GI50 (RPMI-8226): 18.7 µM (inactive)
GI50 (MDA-MB-435): 37.2 µM (inactive)
GI50 (SNB-75): 26.7 µM (inactive)

CCOC(=O)c1csc(NC(=O)CCN(CC)CC)n1
GI50 (OVCAR-3): 26.8 µM (inactive)
GI50 (NCI-H460): > 100 µM (inactive)
GI50 (HT-29): 23.8 µM (inactive)
GI50 (NCI/ADR-RES): 40.2 µM (inactive)
GI50 (SK-MEL-28): 27.5 µM (inactive)
GI50 (EKVX): 63.2 µM (inactive)
GI50 (SK-MEL-2): 55.7 µM (inactive)
GI50 (MDA-N): 45.5 µM (inactive)
GI50 (KM12): 23.5 µM (inactive)
GI50 (K562): 71 µM (inactive)
GI50 (RXF 393): 49.4 µM (inactive)
GI50 (MOLT-4): 32.7 µM (inactive)
GI50 (UACC-257): 28.1 µM (inactive)
GI50 (SF-539): 26.9 µM (inactive)
GI50 (UACC-62): 45 µM (inactive)
GI50 (HOP-62): > 100 µM (inactive)
GI50 (SK-OV-3): > 100 µM (inactive)
GI50 (MCF7): 26 µM (inactive)
GI50 (CAKI-1): 20.5 µM (inactive)
GI50 (SW-620): 27.2 µM (inactive)
GI50 (OVCAR-4): 57.4 µM (inactive)
GI50 (SNB-19): > 100 µM (inactive)
GI50 (SR): 21.9 µM (inactive)
GI50 (OVCAR-5): > 100 µM (inactive)
GI50 (HL-60): 39.1 µM (inactive)
GI50 (OVCAR-8): 30.7 µM (inactive)
GI50 (M14): 25 µM (inactive)
GI50 (LOX IMVI): 33.2 µM (inactive)
GI50 (DU-145): 40.2 µM (inactive)
GI50 (SF-295): > 100 µM (inactive)
GI50 (COLO 205): 33.8 µM (inactive)
GI50 (HOP-92): 24.5 µM (inactive)
GI50 (CCRF-CEM): 27.5 µM (inactive)
GI50 (HCT-15): 27.6 µM
GI50 (SK-MEL-5): 45.8 µM (inactive)
GI50 (UO-31): 35.7 µM (inactive)
GI50 (U-251): 81.3 µM (inactive)
GI50 (MDA-MB-231): 50.5 µM (inactive)
GI50 (TK-10): 23.8 µM (inactive)
GI50 (T47D): 54.7 µM (inactive)
GI50 (ACHN): 42.9 µM (inactive)
GI50 (A498): 91.2 µM (inactive)
GI50 (A549): 55 µM (inactive)
GI50 (NCI-H226): 30.3 µM (inactive)
GI50 (NCI-H23): 64.7 µM (inactive)
GI50 (HCC 2998): 49.8 µM (inactive)
GI50 (IGROV-1): 39.7 µM (inactive)
GI50 (PC-3): 41 µM (inactive)
GI50 (RPMI-8226): 0.0817 µM (active)
GI50 (MDA-MB-435): 38.3 µM (inactive)
GI50 (SNB-75): 28.1 µM (inactive)

CCc1nc(N)nc(N)c1-c1ccc(Cl)c(N=[N+]=[N-])c1
GI50 (OVCAR-3): 15.6 µM (inactive)
GI50 (NCI/ADR-RES): 5.5 µM (inactive)
GI50 (SK-MEL-28): 13.5 µM (inactive)
GI50 (EKVX): 2.75 µM (inactive)
GI50 (SK-MEL-2): 14.6 µM (inactive)
GI50 (KM12): 7.36 µM (inactive)
GI50 (HCT-116): 0.6 µM (active)
GI50 (K562): 0.37 µM (active)
GI50 (786-0): 3.44 µM (inactive)
GI50 (Hs-578T): 16.7 µM (inactive)
GI50 (SF-539): 4.05 µM (inactive)
GI50 (NCI-H522): 9.51 µM (inactive)
GI50 (HOP-62): 16.7 µM (inactive)
GI50 (SK-OV-3): 31 µM (inactive)
GI50 (MCF7): 5.48 µM (inactive)
GI50 (SF-268): 9.35 µM (inactive)
GI50 (SW-620): 1.6 µM (inactive)
GI50 (OVCAR-4): 19.2 µM (inactive)
GI50 (OVCAR-5): 12.1 µM (inactive)
GI50 (SN12C): 12.6 µM (inactive)
GI50 (LOX IMVI): 2.21 µM (inactive)
GI50 (DU-145): 11.2 µM (inactive)
GI50 (SF-295): 2.09 µM (inactive)
GI50 (COLO 205): 7.74 µM (inactive)
GI50 (HOP-92): 20.5 µM (inactive)
GI50 (SK-MEL-5): 2.61 µM (inactive)
GI50 (U-251): 4.69 µM (inactive)
GI50 (MDA-MB-231): 15.6 µM (inactive)
GI50 (T47D): 28.5 µM (inactive)
GI50 (A498): 8.39 µM (inactive)
GI50 (NCI-H226): 22.7 µM (inactive)
GI50 (NCI-H23): 4.03 µM (inactive)
GI50 (HCC 2998): 9.62 µM (inactive)
GI50 (RPMI-8226): 8.87 µM (inactive)
GI50 (MDA-MB-435): 2.84 µM (inactive)
GI50 (SNB-75): 22.1 µM (inactive)
